Publication PMC7656302 (Cancers, 2020)

Key:
clinical = settings: human, in vivo
Method: Concentration-time curve and PK parameters were analyzed for each compound. Maximal concentrations (Cmax) and the time to reach the Cmax (Tmax) were graphically identified and the AUC was calculated with a non-compartmental method.

HIF-1α = settings: colon cancers, oxygen concentrations from 5 to 1%; cited from earlier work

SMILES	concentration at 8 day (clinical; D8 rapamycin concentrations) [ng/mL]	Tmax (clinical; Rapamycin D1 Tmax) [h]	AUC (clinical; mean AUC of D8 rapamycin) [ng·h/mL]	Tmax (clinical; Irinotecan D1 Tmax) [h]	AUC (clinical; irinotecan mean AUC) [ng·h/mL]	AUC (clinical; mean AUC of irinotecan) [ng·h/mL]	AUC (clinical; mean irinotecan AUCs) [ng·h/mL]	inhibition of HIF-1α (HIF-1α)
CO[C@H]1C[C@@H]2CC[C@@H](C)[C@@](O)(O2)C(=O)C(=O)N2CCCC[C@H]2C(=O)O[C@H]([C@H](C)C[C@@H]2CC[C@@H](O)[C@H](OC)C2)CC(=O)[C@H](C)/C=C(\C)[C@@H](O)[C@@H](OC)C(=O)[C@H](C)C[C@H](C)/C=C/C=C/C=C/1C [rapamycin]	6.75	3.5	176	–	–	–	–	–
CCc1c2c(nc3ccc(OC(=O)N4CCC(N5CCCCC5)CC4)cc13)-c1cc3c(c(=O)n1C2)COC(=O)[C@]3(O)CC [irinotecan]	–	–	–	1.67	6740	6870	5970	high inhibition of HIF-1α
